Data on two molecules can be found in EP0986381B1, “USE OF DITERPENES LIKE HYPOESTOXIDES FOR THE MANUFACTURE OF A MEDICAMENT FOR IMMUNOSUPPRESSION, ANTICANCER AND ANTIVIRAL TREATMENT” (Immune Modulation, Inc., priority 1997, dated 1998).

A value given as a limit tells only on which side of the number the result lay.

Data set [1] deals with human two-way mixed lymphocyte reaction (PBMCs from two individuals). The data set is described as follows: Two-way mixed leukocyte reaction (MLR), 3H-thymidine incorporation. It is filed as cell-based. As for the experimental part:
The MLR is an assay recognized by those skilled in the art as an in vitro predictor of in vivo immunosuppressant activity. The MLR is an in vitro model of T-cell recognition of foreign major histocompatibility complex (MHC) gene products and was used as a predictive test of cell-mediated graft rejection (Abbas, A.K., et al., eds, 1994, 2nd ed. Cellular and Molecular Immunology, W.B. Saunders Co., USA). Graft rejection is carried out by T cells that recognize MHC molecules and destroy the graft. This process can be studied in vivo, but in-depth analysis, especially in humans, required the development of tests such as the MLR as an in vitro correlate of graft rejection. (Janeway, Chas. and Travers, Paul, Immunobiology, 2nd Ed., Garland Publishing, Inc, New York (1996)). It is well known in the art that the MLR is induced by co-culturing mononuclear leukocytes from one individual with mononuclear leukocytes derived from another individual. If there are differences in the alleles of the MHC genes between the two individuals, a large proportion of the mononuclear cells will proliferate over a period of 4-7 days, and is referred to as allogeneic MLR. The level of proliferative response is measured by incorporation of ^3H-thymidine into DNA during cell replication. Because the cells from each donor react and proliferate against the other, the resultant response is known as a "two-way MLR". JO-4 was tested in the MLR for its ability to "immunosuppress".
Mononuclear cells (at 2 x 10^6/ml) of each donor were first mixed thoroughly together in a 50 ml tube at a 1:1 ratio with volume. […] Cells were harvested onto glass fiber filters (Packard, Downers Grove, IL) with a 96-well automatic cell harvester (TOMTEC, Hamden, CT) and were counted directly on a Matrix 9600 beta counter (Packard).
Data were expressed as percent inhibition (% Inhibition) according to the following formula: % Inhibition = 100 -((Counts per minute (CPM) for wells with drug x 100))/(CPM for wells without drug) [formula] […]

The subject of a further data set is HSV-2. The data set is described as follows: In vitro HSV-2 replication assay, Hybriwix Probe Systems. It counts as cell-based, Herpes simplex virus. As for the experimental part:
The antiviral activity of the drug was determined using the Hybriwix™ Probe Systems (Herpes Antiviral Susceptibility Test kit: Diagnostic Hybrids, Inc., Athens, OH). Briefly, either HSV-1 or HSV-2 isolates (ATTC, Rockville, MD) were pre-adsorbed at 37°C and 5% CO2 in a humidified incubator for 60 minutes on African green monkey Kidney cells in a 24-well flat-bottom plate. Following pre-adsorption, the viral inoculum was removed and the growth medium containing various concentrations of appropriate drug was placed in appropriate wells. The culture was continued for 48 hours for the amplification of the virus. Quantification of the HSV DNA present in each well was determined by the nucleic acid hybridization method. The cells and/or virus were lysed with DNA wicking agent and the single-stranded DNA was immobilized on a Hybriwix™ filter by a vertical capillary absorption of the wicking agent/DNA solution. The amount of HSV target DNA from each well was determined using radioactive (I^125)-HSV DNA probe containing genetic sequences, which are homologous to HSV-1 or HSV-2 sequences. The amount of radioactivity present on the Hybriwix™ was dependent upon the amount of HSV DNA present after culture, and was determined in a gamma counter (Packard Instrument Co., Meriden, CT).

Data set [2] is described as follows: Colorimetric MTT cytotoxicity assay, CV-1 cells. It is filed as cell-based. As to conditions: african green monkey, read-out: concentration giving cytotoxicity of greater than 50%. The procedure:
Normal African green monkey kidney cells (CV-1): CV-1 cells from the Hybriwix™ Probe Systems: Herpes Antiviral Susceptibility Test kit (Diagnostic Hybrids, Inc., Athens, OH) were used for toxicity testing of JO-4A by MTT assay. Colorimetric MTT assay: Cytotoxic effects of drugs were determined in vitro by a colorimetric assay (Mosmann, T., J. Immunol. Methods, 65: 55-63, 1983). Briefly, 1000 cells per well (100 µl) in a 96-well flat-bottom plate were cultured either with the culture medium alone or with various concentrations of drug at 37°C, in a 5% CO2-95% air humidified incubator for 72 hours. At the end of the culture, 10 µl of 5 mg/ml sterile solution of 3-(4,5-Dimethylthiazol-2yl)-2,5-diphenyltetrazolium bromide (MTT) (Sigma Chemicals, Saint Louis, MO) in PBS was added per well and the incubation was resumed for an additional 4 hours. Acid-isopropanol (100 µl of 0.04 N HCl in isopropanol) was added to all wells and kept at room temperature for 30 minutes. Mixing with a multichannel pipetter dissolved the dark blue crystals and the absorbance was measured at 545-650 nm using an ELISA plate reader.

For another data set, the system named is NK activity. The data set is described as follows: NK activity in vivo, spleen cells against YAC-1 targets, 51Cr-release. Set-up: species or system Mice.

`C=C1C(=O)C[C@H]2C[C@@H]3O[C@@]3(C)CC[C@@H]3O[C@@]3(C)C[C@@H](OC(C)=O)[C@H]1C2(C)C` [JO-4, hypoestoxide]: in data set [1] (JO-4 at 1.0, 0.5 or 0.25 µg/ml, 5 days), the “effect on two-way MLR” value is reported as “inhibited”. The molecule also gave an inhibition at 3.125 µM with HSV-2 (Human alphaherpesvirus 2, 48 h, 3.125 µM, two days, African green monkey kidney cells) of 58%. This molecule displayed an inhibition at 12.5 µM with HSV-2 (Human alphaherpesvirus 2, 48 h, 12.5 µM, two days, African green monkey kidney cells) of 65%. In addition, the IC50 in the data set with HSV-2 (Human alphaherpesvirus 2, 48 h, two days, African green monkey kidney cells, read-out: IC50 dose on HSV-1 inhibition (paragraph on HSV-2 replication)) is under 3.12 µM. The CC50 at 72 h in data set [2] was over 50 µM.
Consider `C=C1C(=O)CC2CC3OC3(C)CCC3OC3(C)CC(O)C1C2(C)C` (centres unmarked) [JO-4A], for which the 50% inhibitory concentration (IC50) in data set [1] (Homo sapiens, Leukocyte, 120 h, 5 days) is 5 to 10 µM. Besides, the inhibition at 10 µM in data set [1] (Homo sapiens, Leukocyte, at 10.0 µM) came out at 64%. The “NK activity in vivo” value in the data set on NK activity (intravenous administration) and in the data set on NK activity (oral administration) was “inhibited” each time. The “replication and growth of HSV-2” value in the data set with HSV-2 (African Green Monkey kidney cells) is reported as “inhibited”. Further, the CC50 at 72 h in data set [2] was about 25 µM.

Usually inhibition stands for the percentage by which the read-out fell short of the control. In general, IC50 refers to the concentration that inhibits the measured activity by half.
